According to patent US9932350B2, “Inhibitors of IRAK4 activity” (MERCK SHARP & DOHME CORP., priority 2014, dated 2018):

Biological target: GST tagged IRAK4 (Homo sapiens (Human), UniProt Q9NWZ3)
Experiment: IRAK4 Kinase Assay (IMAP fluorescence polarization)
Type: biochemical
Details: 0.5 nM GST tagged IRAK4, 100 μM ATP, 30 minutes at 25° C.
Description: The kinase activity of IRAK4 is determined by its ability to catalyze the phosphorylation of a fluorescent polypeptide substrate. The extent of phosphorylation is measured using the IMAP technology (Molecular Devices) where the phosphorylated fluorescent substrate binds to the large M(III)-based nanoparticles which reduces the rotational speed of the substrate and thus increases its fluorescent polarization (FP).
20 μL reaction mixture contains 10 mM TriHCl, pH 7.2, 0.5 nM GST tagged IRAK4 (SignalChem), 100 nM fluorescent peptide substrate (RP7030, Molecular Devices), 100 μM ATP, 1 mM DDT, 1 mM MgCl2, and 0.01% Tween 20. The reaction is initiated by the addition of ATP. After incubation for 30 minutes at 25° C., 60 μL of Progressive IMAP Reagent (Molecular Devices) is added to stop the reaction. Change in RP7030's FP is determined by a FP reader (Analyst HT, LJL BioSystems).

Sequence of GST tagged IRAK4 (Q9NWZ3 whole entry): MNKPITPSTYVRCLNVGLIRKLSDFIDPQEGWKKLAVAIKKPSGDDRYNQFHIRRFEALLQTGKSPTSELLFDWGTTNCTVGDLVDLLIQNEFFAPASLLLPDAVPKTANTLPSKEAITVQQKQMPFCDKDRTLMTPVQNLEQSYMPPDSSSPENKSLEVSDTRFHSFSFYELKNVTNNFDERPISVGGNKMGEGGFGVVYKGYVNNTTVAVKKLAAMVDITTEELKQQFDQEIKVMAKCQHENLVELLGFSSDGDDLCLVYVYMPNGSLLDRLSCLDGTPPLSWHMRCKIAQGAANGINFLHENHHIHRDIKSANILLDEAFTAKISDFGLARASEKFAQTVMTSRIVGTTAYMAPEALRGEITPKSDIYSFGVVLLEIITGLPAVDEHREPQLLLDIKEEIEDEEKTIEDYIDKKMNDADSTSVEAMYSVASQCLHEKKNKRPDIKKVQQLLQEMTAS

SMILES | IC50 [nM]
N#Cc1ccc2ncnc(N[C@H]3CC[C@H](N)CC3)c2c1 [Example 1-1, 4-[(Trans-4-aminocyclohexyl)amino]quinazoline-6-carbonitrile] | 31
N#Cc1ccc2ncnc(N[C@H]3CC[C@H](N4CC[C@H](O)C4)CC3)c2c1 [Example 3-34, 4-({trans-4-[(3S)-3-hydroxypyrrolidin-1-yl]cyclohexyl}amino) quinazoline-6-carbonitrile] | 33
N#Cc1ccc2ncnc(N[C@H]3CC[C@H](N4CCCC(F)(F)CC4)CC3)c2c1 [Example 3-53, 4-{[trans-4-(4,4-difluoroazepan-1-yl)cyclohexyl]amino} quinazoline-6-carbonitrile] | 12
N#Cc1ccc2ncnc(NC3CCC(N4CCCC(C(F)(F)F)C4)CC3)c2c1 (single isomer, unassigned) [Example 3-5, 4-({cis or trans-4-[(3R or S)-3-(trifluoromethyl)piperidin-1-yl]cyclohexyl}amino) quinazoline-6-carbonitrile] | 908
N#Cc1ccc2ncnc(N[C@H]3CC[C@H](N4CCC4)CC3)c2c1 [Example 3-1, 4-{[Trans-4-(azetidin-1-yl)cyclohexyl]amino}quinazoline-6-carbonitrile] | 34
N#Cc1ccc2ncnc(N[C@H]3CC[C@H](N4CC(N5CCOCC5)C4)CC3)c2c1 [Example 3-37, 4-({trans-4-[3-(morpholin-4-yl)azetidin-1-yl]cyclohexyl}amino) quinazoline-6-carbonitrile] | 41
CN(C)[C@H]1CC[C@H](Nc2ncnc3ccc(OCC(N)=O)cc23)CC1 [Example 2-17, 2-[(4-{[trans-4-(dimethylamino)cyclohexyl]amino}quinazolin-6-yl)oxy]acetamide] | 52
CN(C)[C@H]1CC[C@H](Nc2ncnc3cc(F)c(F)cc23)CC1 [Example 2-4, trans-N′-(6,7-difluoroquinazolin-4-yl)-N,N-dimethylcyclohexane-1,4-diamine] | 303
CN(C)[C@H]1CC[C@H](Nc2ncnc3ccc(OCCCC(N)=O)cc23)CC1 [Example 4-1, 4-[(4-{[Trans-4-(dimethylamino)cyclohexyl]amino}quinazolin-6-yl)oxy]butanamide] | 525
CC(C)(C)OC(=O)N1CCN([C@H]2CC[C@H](Nc3ncnc4ccc(C#N)cc34)CC2)CC1 [Example 3-45, tert-butyl 4-{trans-4-[(6-cyanoquinazolin-4-yl)amino]cyclohexyl} piperazine-1-carboxylate] | 6
C[C@@H]1COCCN1[C@H]1CC[C@H](Nc2ncnc3ccc(C#N)cc23)CC1 [Example 3-31, 4-({trans-4-[(3R)-3-methylmorpholin-4-yl]cyclohexyl}amino) quinazoline-6-carbonitrile] | 10
N#Cc1ccc2ncnc(N[C@H]3CC[C@H](N4C[C@@H]5C[C@H]4CO5)CC3)c2c1 [Example 3-18, 4-({trans-4-[(1S,4S)-2-oxa-5-azabicyclo[2.2.1]hept-5-yl]cyclohexyl}amino) quinazoline-6-carbonitrile] | 114
CN(C1CC1)[C@H]1CC[C@H](Nc2ncnc3ccc(C#N)cc23)CC1 [Example 3-32, 4-({trans-4-[cyclopropyl(methyl)amino]cyclohexyl}amino) quinazoline-6-carbonitrile] | 15
CC1CN([C@H]2CC[C@H](Nc3ncnc4ccc(C#N)cc34)CC2)CCO1 (single isomer, unassigned) [Example 3-16, 4-({trans-4-[(2S or 2R)-2-methylmorpholin-4-yl]cyclohexyl}amino) quinazoline-6-carbonitrile] | 7
N#Cc1ccc2ncnc(N[C@H]3CC[C@H](N4CCC(O)C4)CC3)c2c1 (stereo partly drawn) [Example 3-55, 4-{[trans-4-(3-hydroxypyrrolidin-1-yl)cyclohexyl]amino} quinazoline-6-carbonitrile] | 15
N#Cc1ccc2ncnc(N[C@H]3CC[C@H](N4CCCC(CN5CCOCC5)C4)CC3)c2c1 (single isomer, unassigned) [Example 3-42, 4-({trans-4-[(3R or 3S)-3-(morpholin-4-ylmethyl)piperidin-1-yl]cyclohexyl}amino) quinazoline-6-carbonitrile] | 5
COc1cc2c(N[C@H]3CC[C@H](N4CCOCC4)CC3)ncnc2cc1F [Example 2-12, 7-fluoro-6-methoxy-N-[trans-4-(morpholin-4-yl)cyclohexyl]quinazolin-4-amine] | 58
CN1CCN([C@H]2CC[C@H](Nc3ncnc4ccc(C#N)cc34)CC2)CC1 [Example 3-30, 4-{[trans-4-(4-methylpiperazin-1-yl)cyclohexyl]amino} quinazoline-6-carbonitrile] | 17
N#Cc1ccc2ncnc(N[C@H]3CC[C@H](N4CCCC(F)C4)CC3)c2c1 (stereo partly drawn) [Example 3-35, 4-{[trans-4-(3-fluoropiperidin-1-yl)cyclohexyl]amino} quinazoline-6-carbonitrile] | 38
COc1ccc2ncnc(N[C@H]3CC[C@H](N4CCOCC4)CC3)c2c1 [Example 2-8, 6-methoxy-N-[trans-4-(morpholin-4-yl)cyclohexyl]quinazolin-4-amine] | 16
CS(=O)(=O)C1CCN([C@H]2CC[C@H](Nc3ncnc4ccc(C#N)cc34)CC2)C1 (stereo partly drawn) [Example 3-13, 4-({trans-4-[3-(methylsulfonyl)pyrrolidin-1-yl]cyclohexyl}amino) quinazoline-6-carbonitrile] | 14
CC(C)[C@@H]1COCCN1[C@H]1CC[C@H](Nc2ncnc3ccc(C#N)cc23)CC1 [Example 3-52, 4-({trans-4-[(3R)-3-(propan-2-yl)morpholin-4-yl]cyclohexyl}amino) quinazoline-6-carbonitrile] | 26

Results, then the compound that gave them:

IC50 [nM] | SMILES
8 | N#Cc1ccc2ncnc(N[C@H]3CC[C@H](N4CCN(C(=O)C(O)C5CC5)CC4)CC3)c2c1 (stereo partly drawn) [Example 6-20, 4-[(trans-4-{4-[cyclopropyl(hydroxy)acetyl]piperazin-1-yl}cyclohexyl)amino] quinazoline-6-carbonitrile]
27 | N#Cc1ccc2ncnc(N[C@H]3CC[C@H](N4CCN(C(=O)C(F)F)CC4)CC3)c2c1 [Example 6-12, 4-({trans-4-[4-(difluoroacetyl)piperazin-1-yl]cyclohexyl}amino) quinazoline-6-carbonitrile]
10 | N#Cc1ccc2ncnc(N[C@H]3CC[C@H](N4CCN(C(=O)C5CCC5)CC4)CC3)c2c1 [Example 6-15, 4-({trans-4-[4-(cyclobutylcarbonyl)piperazin-1-yl]cyclohexyl}amino) quinazoline-6-carbonitrile]
11 | N#Cc1ccc2ncnc(N[C@H]3CC[C@H](N4CCN(C(=O)[C@@H]5CCCO5)CC4)CC3)c2c1 [Example 6-11, 4-[(trans-4-{4-[(2S)-tetrahydrofuran-2-ylcarbonyl]piperazin-1-yl}cyclohexyl)amino] quinazoline-6-carbonitrile]
43 | C[C@]1(Nc2ncnc3ccc(C#N)cc23)CC[C@H](N2CCC(O)C2)CC1 (stereo partly drawn) [Example 7-3, 4-{[trans-4-(3-hydroxypyrrolidin-1-yl)-1-methylcyclohexyl]amino} quinazoline-6-carbonitrile]
10 | N#Cc1ccc2ncnc(N[C@H]3CC[C@H](N4CCN(C(=O)C5CCCC5)CC4)CC3)c2c1 [Example 6-16, 4-({trans-4-[4-(cyclopentylcarbonyl)piperazin-1-yl]cyclohexyl}amino) quinazoline-6-carbonitrile]
8 | CC(C)(C)C(=O)N1CCN([C@H]2CC[C@H](Nc3ncnc4ccc(C#N)cc34)CC2)CC1 [Example 6-3, 4-({trans-4-[4-(2,2-dimethylpropanoyl)piperazin-1-yl]cyclohexyl}amino) quinazoline-6-carbonitrile]
15 | CC1(C(=O)N2CCN([C@H]3CC[C@H](Nc4ncnc5ccc(C#N)cc45)CC3)CC2)CC1 [Example 6-8, 4-[(trans-4-{4-[(1-methylcyclopropyl)carbonyl]piperazin-1-yl}cyclohexyl)amino] quinazoline-6-carbonitrile]
10 | CC1CC(N2CCC(F)CC2)CCC1Nc1ncnc2ccc(C#N)cc12 (single isomer, unassigned) [Example 8-2, 4-{[(1S,2S,4S or 1R,2R,4R)-4-(4-fluoropiperidin-1-yl)-2-methylcyclohexyl]amino} quinazoline-6-carbonitrile]
52 | Cc1c(C#N)ccc2ncnc(N[C@H]3CC[C@H](N4CCOCC4)CC3)c12 [Example 5-2, 5-methyl-4-{[trans-4-(morpholin-4-yl)cyclohexyl]amino} quinazoline-6-carbonitrile]
9 | CC(C)(CF)C(=O)N1CCN([C@H]2CC[C@H](Nc3ncnc4ccc(C#N)cc34)CC2)CC1 [Example 6-4, 4-({trans-4-[4-(3-fluoro-2,2-dimethylpropanoyl)piperazin-1-yl]cyclohexyl}amino) quinazoline-6-carbonitrile]
7 | N#Cc1ccc2ncnc(N[C@H]3CC[C@H](N4CCC(F)CC4)[C@@H]4C[C@@H]43)c2c1 [Example 7-4, 4-{[(1S,2S,5S,6R)-5-(4-fluoropiperidin-1-yl)bicyclo[4.1.0]hept-2-yl]amino}quinazoline-6-carbonitrile]
17 | N#Cc1ccc2ncnc(N[C@H]3CC[C@H](N4CCN(C(=O)[C@H]5CCCO5)CC4)CC3)c2c1 [Example 6-23, 4-[(trans-4-{4-[(2R)-tetrahydrofuran-2-ylcarbonyl]piperazin-1-yl}cyclohexyl)amino] quinazoline-6-carbonitrile]
